# Test results from patent publication US4600715A, “Benzodiazepine antagonistic β-carboline derivatives and compositions thereof” (Shering Aktiengesellschaft, priority 1983, dated 1986).
# Like-named read-outs stand apart in the source and are kept apart here.
# Key:
# benzodiazepine receptors [1] = experiment: in vitro displacement of specific ^3 H flunitrazepam binding, cerebral membrane suspension; conditions: ^3 H flunitrazepam 1.0 nM, 0° C.; rat cerebrum, pH 7.1; concentration effecting 50% displacement of specific binding
# benzodiazepine receptors [2] = conditions: comparison compound marked *Nature 294: 472 (1981); ^3 H flunitrazepam 1.0 nM, 0° C.; cited from earlier work
SMILES,"IC50 (in vitro), displacement activity (benzodiazepine receptors [1]) [ng/mL]","IC50 (in vitro), displacement activity (benzodiazepine receptors [2]) [ng/mL]"
"CCOC(=O)c1ncc2[nH]c3ccc(C(=O)N(C)C)cc3c2c1COC [CO2 Et, CH2 OCH3, CON(CH3)2, 6-N,N-dimethylcarbamoyl-4-methoxymethyl-β-carboline-3-carboxylic acid ethyl ester]",1.3,
"C=CCN(CC=C)C(=O)c1ccc2[nH]c3cnc(C(=O)OCC)c(C)c3c2c1 [CO2 Et, CH3, CON(Allyl)2, 6-N,N-diallylcarbamoyl-4-methyl-β-carboline-3-carboxylic acid ethyl ester]",0.4,
"CCOC(=O)c1cc2c(cn1)[nH]c1ccc(C(=O)N3CCCCC3)cc12 [CO2 Et, H, drawing 10, 6-piperidinocarbonyl-β-carboline-3-carboxylic acid ethyl ester]",0.6,
"CCCOC(=O)c1ccc2[nH]c3cnc(C(=O)OCC)c(C)c3c2c1 [CO2 Et, Me, COOC3 H7, 6-propoxycarbonyl-4-methyl-β-carboline-3-carboxylic acid ethyl ester]",0.5,
"COC(=O)c1cc2c(cn1)[nH]c1ccccc12 [CO2 Me, H, H]",,1.9
"CCc1noc(-c2cc3c(cn2)[nH]c2ccc(C(=O)N4CCCCC4)cc23)n1 [drawing 11, H, drawing 12, 3-(5'-[3'-ethyl-1',2',4'-oxadiazol]yl)-β-carboline-6-carboxylic acid piperidide]",0.6,
